The test system of data set [1] is JEKO-1. Put plainly: Cytotoxicity mantle cell lymphoma.
Experimental: (§1) After 72 hours, the cultures were pulsed with Alamar Blue overnight, and the fluorescent intensity of resulted cultures was measured by a Synergy H1 plate-reader (BioTek Inc).
The test system of data set [2] is Granta-519.
Experimental: as §1
The test system of data set [3] is Mino.
Experimental: as §1
The next data set has as its system Granta. Put plainly: Combination with BO-1055, MCL (Tables 28, 29). It counts as cell-based, human.
A further data set has as its system NECB1. Put plainly: Combination with BO-1055, MCL (Tables 28, 29). It counts as cell-based, human.
A further data set concerns SUDHL-5. In words: Cytotoxicity DLBCL. Conditions: read-out: cytotoxicity IC50; SUDHL-5, DLBCL GCB.
Another data set has as its system Ly18. Put plainly: Cytotoxicity DLBCL. The settings on record: read-out: cytotoxicity IC50; LY18, DLBCL GCB.
A further data set has as its system NECB-1. Put plainly: Cytotoxicity mantle cell lymphoma.
The test system of data set [4] is spontaneous murine B-cell lymphoma. Conditions: mouse.
Data set [5] deals with Mino. Put plainly: Combination with BO-1055, MCL (Tables 28, 29). It counts as cell-based, human.
The subject of another data set is HBL1. The settings on record: human.
Another data set deals with Ly3 (OCI-LY3). Conditions: human.
Data set [6] deals with Z-138. In words: Combination with BO-1055, MCL (Tables 28, 29). It counts as cell-based, human.
In the next data set the test system is LY1. Conditions: human.
The test system of a further data set is REC-1. Put plainly: Combination with BO-1055, MCL (Tables 28, 29). It counts as cell-based, human.
Another data set has as its system U2932. The settings on record: human.
The subject of another data set is Toledo. The settings on record: human.
Data set [7] relates to nude mice bearing prostate 22Rv/HL2. The settings on record: mouse, in vivo.
Data set [8] concerns nude mice bearing prostate 22Rv/HL2 tumor xenografts. The settings on record: mouse, in vivo.
Data set [9] has as its system nude mice bearing prostate 22Rv/HL2. Conditions: mouse, in vivo. This is another data set of the same source.
The test system of another data set is H889. In words: Cytotoxicity SCLC 72 hr alamar blue. The format is cell-based, human. The settings on record: Homo sapiens, NCI-H889, 72 h.
Another data set deals with hERG (Homo sapiens, UniProt Q12809). Put plainly: in vitro.
In a further data set the test system is A204 rhabdomyosarcoma. Put plainly: Cytotoxicity sarcoma. Conditions: read-out: cytotoxic activity (IC50), A204 (rhabdoid?).
Another data set relates to Ly19. In words: cells. The settings on record: Homo sapiens, read-out: cytotoxicity IC50.
Another data set concerns Farage. In words: cells. The settings on record: Homo sapiens, read-out: cytotoxicity IC50.
The test system of data set [10] is Z-138. Put plainly: Cytotoxicity mantle cell lymphoma. Conditions: read-out: cytotoxicity IC50, Z-138, mantle cell lymphoma.
Experimental: as §1
The conditions of data set [11]: rat.
The next data set can be described thus: in vitro. Conditions: rat, microsomes.
In data set [12] the test system is BCI-NSI hTERT bronchial epithelium. In words: Cytotoxicity normal tissue 72 hr. It counts as cell-based, human.
The subject of data set [13] is HUVEC umbilical endothelium. In words: Cytotoxicity normal tissue 72 hr. The format is cell-based, human.
The subject of data set [14] is FTE-hTERT Fallopian epithelium. In words: Cytotoxicity normal tissue 72 hr. It counts as cell-based, human.
Another data set has as its system BMMSC BM mesenchyme. In words: Cytotoxicity normal tissue 72 hr. The format is cell-based, human.
For data set [15], the system named is Mino. In words: Cytotoxicity mantle cell lymphoma. The settings on record: human, Mino mantle cell lymphoma cells, 72 h.
Experimental: as §1
In data set [16] the test system is Granta-519. In words: Cytotoxicity mantle cell lymphoma. The settings on record: human, Granta-519 mantle cell lymphoma cells, 72 h.
Experimental: as §1
The next data set relates to MA-10-W51. In words: Cytotoxicity leukemia. The format is cell-based, human. Conditions: growth factor dependent MA-10-W51. The source says: Human cord blood CD34+ cells transduced with MLL-AF9 gene: MA-10, MA-18. Human bone marrow CD34+ cells transduced with MLL-AF9 gene: MA-23. Human cord blood CD34+ cells transduced with MLL-AF9 and N-ras genes: MA-9.3, […] ).
The next data set deals with CV1 renal fibroblasts. In words: Cytotoxicity normal tissue 72 hr. It counts as cell-based, African green monkey (Cercopithecus aethiops). The settings on record: Chlorocebus sabaeus, Fibroblast, 72 h.
In data set [17] the test system is JEKO-1. Conditions: human.
Experimental: as §1
Setting [18] is: read-out: cytotoxicity IC50, NECB-1, mantle cell lymphoma.

Structures are written as SMILES. Like-named read-outs stand apart in the source and are kept apart here. Bounds are passed on as bounds.

Chain of hERG (Q12809 whole entry): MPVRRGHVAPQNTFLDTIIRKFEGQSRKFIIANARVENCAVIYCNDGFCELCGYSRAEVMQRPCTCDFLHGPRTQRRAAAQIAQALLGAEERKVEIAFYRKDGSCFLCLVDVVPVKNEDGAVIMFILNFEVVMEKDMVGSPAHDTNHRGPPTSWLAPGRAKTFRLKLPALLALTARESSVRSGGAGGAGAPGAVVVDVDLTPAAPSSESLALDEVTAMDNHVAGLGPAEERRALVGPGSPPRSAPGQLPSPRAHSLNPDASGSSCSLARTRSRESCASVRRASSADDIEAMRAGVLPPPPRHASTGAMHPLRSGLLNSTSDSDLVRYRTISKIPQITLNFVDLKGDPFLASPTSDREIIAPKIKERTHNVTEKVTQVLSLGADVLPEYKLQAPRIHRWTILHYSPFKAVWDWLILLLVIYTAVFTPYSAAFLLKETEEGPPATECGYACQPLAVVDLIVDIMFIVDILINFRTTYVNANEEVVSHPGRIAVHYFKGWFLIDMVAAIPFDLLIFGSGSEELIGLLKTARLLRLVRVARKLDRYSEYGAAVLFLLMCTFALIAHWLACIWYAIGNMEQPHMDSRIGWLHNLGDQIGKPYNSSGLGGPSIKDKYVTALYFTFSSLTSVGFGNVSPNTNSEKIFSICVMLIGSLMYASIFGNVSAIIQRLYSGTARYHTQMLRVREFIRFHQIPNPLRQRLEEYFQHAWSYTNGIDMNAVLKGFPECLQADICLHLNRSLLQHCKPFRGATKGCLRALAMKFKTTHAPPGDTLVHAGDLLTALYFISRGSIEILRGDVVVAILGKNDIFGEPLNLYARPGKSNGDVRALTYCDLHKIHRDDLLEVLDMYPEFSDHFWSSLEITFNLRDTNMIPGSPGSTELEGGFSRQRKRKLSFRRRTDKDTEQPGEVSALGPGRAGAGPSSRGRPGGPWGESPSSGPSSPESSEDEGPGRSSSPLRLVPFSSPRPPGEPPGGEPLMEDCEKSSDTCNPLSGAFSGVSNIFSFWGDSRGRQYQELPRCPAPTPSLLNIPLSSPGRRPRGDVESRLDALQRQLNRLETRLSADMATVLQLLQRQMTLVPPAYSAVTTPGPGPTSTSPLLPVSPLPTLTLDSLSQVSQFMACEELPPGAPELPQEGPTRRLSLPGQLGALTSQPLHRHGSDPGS
Experimental for A204 rhabdomyosarcoma: as §1
Experimental for HBL1: as §1
Experimental for Ly10: as §1
Experimental for Ly18: as §1
Experimental for Ly3 (OCI-LY3): as §1
Experimental for Ly8: as §1
Experimental for NECB-1: as §1
Experimental for Pfeiffer: as §1
Experimental for SUDHL-4: as §1
Experimental for SUDHL-6: as §1
Experimental for Toledo: as §1
Experimental for U2932: as §1

As for `CC[C@]1(O)C[C@H]2CN(CCc3c([nH]c4ccccc34)[C@@](C(=O)OC)(c3cc4c(cc3OC)N(C=O)[C@H]3[C@@](O)(C(=O)OC)[C@H](OC(C)=O)[C@]5(CC)C=CCN6CC[C@]43[C@@H]65)C2)C1` [Vincristine], half-maximal inhibition with JEKO-1 [1] (JEKO-1, 72 hr (Table 27)) (IC50) required 0.39 µM.
Regarding `CNC(=O)c1cc(Oc2ccc(NC(=O)Nc3ccc(Cl)c(C(F)(F)F)c3)cc2)ccn1` [SOR], the IC50 in the data set with Pfeiffer is 4.57 µM; in the data set with SUDHL-6 it was not below 8 µM; in the data set with Ly8 it was not below 8 µM; in the data set with Ly10, not below 8 µM; with Granta-519 [2], not below 8 µM; in the data set with SUDHL-4 it was 5.62 µM. The IC50 in the data set with Mino [3] was not below 8 µM.
In the case of `CC(C)C[C@H](NC(=O)[C@H](Cc1ccccc1)NC(=O)c1cnccn1)B(O)O` [velcade, Bortezomib], the “interaction with BO-1055” value was “synergistic with combo-1 and antagonistic with combo-2” with Granta; “synergistic with combo-1 and antagonistic with combo-2” in the data set on NECB1; “synergistic cytotoxic with both combinations” in the data set on Mino [5]; “synergistic cytotoxic with both combinations” with Z-138 [6]; “antagonistic in both combinations” in the data set on REC-1. Also, the IC50 in the data set on Pfeiffer (human) was 0.004 µM; with SUDHL-5, 0.018 µM; with SUDHL-6 (human), 0.001 µM; with Ly18, 0.01 µM; with Ly8 (human) it was 0.078 µM; in the data set with NECB-1 (setting [18]), 0.143 µM. Besides, the IC50 is 0.006 µM in data set [4]; 0.004 µM with HBL1; 0.021 µM in the data set on Ly3 (OCI-LY3); 0.005 µM in the data set on LY1; 0.008 µM in the data set on Granta-519 [2] (human); 0.003 µM in the data set on SUDHL-4 (human). Further, the IC50 was found to be 0.005 µM in the data set with U2932, 0.042 µM with Mino [3] (human) and 0.108 µM with Toledo.
Consider `CC(=O)O[C@@]12CO[C@@H]1C[C@H](O)[C@@]1(C)C(=O)[C@H](O)C3=C(C)[C@@H](OC(=O)[C@H](O)[C@@H](NC(=O)OC(C)(C)C)c4ccccc4)C[C@@](O)([C@@H](OC(=O)c4ccccc4)[C@H]21)C3(C)C` [Docetaxel], for which, in data set [7], the BASO is 0.08 10^3/μL, the EOS is recorded as 0.12 10^3/μL, the LYM was 0.66 10^3/μL and the MONO was 0.04 10^3/μL. Moreover, in data set [7], the NEU is 1.34 10^3/μL, the PLT is listed as 308 10^3/μL, the RBC is reported as 7.55 10^6/μL and the WBC is 2.49 10^3/μL. The “pathological change in heart, liver, spleen, lung and kidney” value in data set [8] was “no apparent pathological change”. In data set [9], this molecule displayed an ALT of 54.08 U/L, an AST of 108.60 U/L, a BUN of 21.93 mg/dL and a CREA of 0.32 mg/dL. In data set [9], this molecule showed a UA of 3.60 mg/dL.
As to `O=NN(CCCl)C(=O)NCCCl` [BCNU, BCNU/Carmustine], in the data set with H889, the IC50 is more than 45 µM.
`COc1cccc2c1C(=O)c1c(O)c3c(c(O)c1C2=O)C[C@@](O)(C(=O)CO)C[C@@H]3O[C@H]1C[C@H](N)[C@H](O)[C@H](C)O1` [Doxorubicin]: the “interaction with BO-1055” value in the data set on Granta was “synergistic with combo-1 and antagonistic against combo-2”; in the data set with NECB1, “synergistic with combo-1 and antagonistic against combo-2”; in the data set on Mino [5], “both combinations were synergistic”; in the data set on Z-138 [6] it was “both combinations were synergistic”; in the data set with REC-1, “both combinations were antagonistic”. Further, the concentration for half-maximal inhibition (IC50) in the data set on Pfeiffer (human) is 0.061 µM; against hERG, 0.03 ± 0.03 µM; in the data set with SUDHL-5, 0.912 µM; with SUDHL-6 (human), 0.195 µM; in the data set on Ly18, 0.097 µM; in the data set on NECB-1 (setting [18]), 0.163 µM. Besides, the IC50 in the data set with NECB-1 (read-out: cytotoxicity IC50, NECB-1, mantle cell lymphoma, listed as Doxo) turned out to be 1.23 µM; in the data set with A204 rhabdomyosarcoma it was 0.011 µM; in the data set on Ly19, 0.121 µM; in the data set with JEKO-1 [1], 0.05 µM; in the data set with HBL1, 0.211 µM; in the data set on Farage, 0.273 µM. Besides, the IC50 was 0.084 µM in the data set with Ly10 (human); 0.033 µM with Z-138 [10]; 0.34 µM in the data set with Z-138 [10] (listed as Doxo); 0.05 µM with U2932; more than 10 µM with Toledo.
For `CCOc1ccc2ccc(=O)oc2c1` [7-EC, 7-Ethoxycoumarin], the “MR (metabolic rate)” value in [11] came out at 0.0448 nmol/min/mg. In [11] (microsomes, 1 h), the “% Remaining at 60 min” value is reported as 18%; the “Microsome stability, standards” value is recorded as “High standard = 95%”; the “Microsome stability, turnover” value is listed as 7-EC ≥ 82%). Also, the half-life in the data set “in vitro” came to 23.5 min.
As for `CCc1c2c(nc3ccc(O)cc13)-c1cc3c(c(=O)n1C2)COC(=O)[C@]3(O)CC` [SN-38], the IC50 worked out at 500 µM in data set [12] (read-out: IC50); 0.8 µM with JEKO-1 [1]; 400 µM in [13] (read-out: IC50); 2000 µM in data set [14]; 200 µM in the data set with BMMSC BM mesenchyme.
For the molecule `Cc1[nH]c2ccccc2c1CCNCc1ccc(/C=C/C(=O)NO)cc1` [Panobinostat], the IC50 with Mino [15] was 0.291 µM; in the data set on NECB-1 (human, NECB-1 mantle cell lymphoma cells, 72 h), 0.02 µM; in the data set with JEKO-1 [1] (human, JEKO-1 mantle cell lymphoma cells, 72 h), 0.21 µM; with Granta-519 [16], 0.041 µM.
For `CCc1c(CO)c(CO)c2n1Cc1c(c3ccccc3n1C)C2` [BO-1978], the “cytotoxicity, dose titration (FIG. 9)” value in the data set on MA-10-W51 is “highly cytotoxic, with BO-1978 more so than BO-1055”.
With `Cn1c(CCCC(=O)O)nc2cc(N(CCCl)CCCl)ccc21` [Bendamustine], the IC50 is 150 µM in data set [12], 6.25 µM in the data set with JEKO-1 [1], more than 100 µM in the data set on CV1 renal fibroblasts and 150 µM in [13].
With `CC(=O)O[C@H]1C(=O)[C@@]2(C)[C@H]([C@H](OC(=O)c3ccccc3)[C@]3(O)C[C@H](OC(=O)[C@H](O)[C@@H](NC(=O)c4ccccc4)c4ccccc4)C(C)=C1C3(C)C)[C@]1(OC(C)=O)CO[C@@H]1C[C@@H]2O` [Paclitaxel], the IC50 with NECB-1 (setting [18]) worked out at 0.064 µM; in the data set on JEKO-1 [17], 0.017 µM; in the data set on Granta-519 [2] (human), 0.049 µM; in the data set on Z-138 [10], 0.012 µM; in the data set on Mino [3] (human), 0.025 µM.
As for `COc1cc([C@@H]2c3cc4c(cc3[C@@H](O[C@@H]3O[C@@H]5CO[C@@H](C)O[C@H]5[C@H](O)[C@H]3O)[C@H]3COC(=O)[C@H]23)OCO4)cc(OC)c1O` [Etoposide], the IC50 with JEKO-1 [1] was 0.78 µM.

By IC50 is commonly meant the concentration that gives 50% inhibition. The term half-life denotes the time needed for the level to fall by half in the phase considered. Read a high half-life as slow decline.

Values taken from patent US20200246284A1 (Academia Sinica, priority 2015, published 2020).
